Experimental data taken from US20100227381A1, “ENHANCED BIODEGRADATION OF NON-AQUEOUS PHASE LIQUIDS USING SURFACTANT ENHANCED IN-SITU CHEMICAL OXIDATION” (VERUTEK TECHNOLOGIES, INC., priority 2007, published 2010).

Tests used:
[1] = pure compound in water; cited from earlier work
[2] = Chlorinated DNAPL dissolution in control sample without cosolvent-surfactant (equilibrium solubility in water in presence of the DNAPL); settings: 25 °C, thermodynamic from solid
Experimental: In order to test the treatment of chlorinated compounds, a chlorinated solvent DNAPL was obtained from a site consisting of chlorinated solvents and chlorinated semi-volatile compounds. […]
The data collected under the experimentation conditions presented in Table 2 were obtained at 25° C. with 60 rpm shaker table mixing for 48 hours. After the shaker was shut off, the samples sat quietly for 5 minutes before the supernatant was analyzed. DNAPLmax represents the maximum concentration of DNAPL that may dissolve, given the mass of DNAPL and the volume of water.
Samples from experiment number 1, 3, 5, 7, and 8 (control) were analyzed. Additionally, measurements of interfacial tension (IFT) were conducted on the samples after the 48-hour period.

SMILES	Pure Compound Aqueous Solubility [1]	solubility at 48 h [2] [µg/mL]
ClC(Cl)=C(Cl)C(Cl)=C(Cl)Cl [Hexachlorobutadiene (HCBD), Hexachlorobutadiene]	0.005 µg/mL	
ClC(Cl)(Cl)C(Cl)(Cl)Cl [Hexachloroethane (HCE), Hexachloroethane]	50 µg/mL	
Clc1c(Cl)c(Cl)c2c(Cl)c(Cl)c(Cl)c(Cl)c2c1Cl [Octachloronaphthalene (OCN), Octachloronaphthalene]	insoluble	
ClC(Cl)=C(Cl)Cl [Tetrachloroethene (PCE), Tetrachloroethene]	800 µg/mL	140
